# Reference: the supplement of paper PMC10307832
# Legend:
# Assay in all cases: relative viability (nuclei count vs DMSO), 5 days (fraction); higher = more cells survive
# IPA-3 + Olaparib = compound: C1=CC=C2C(=C1)C=CC(=C2SSC3=C(C=CC4=CC=CC=C43)O)O [IPA-3] + O=C(c1cc(Cc2n[nH]c(=O)c3ccccc23)ccc1F)N1CCN(C(=O)C2CC2)CC1 [Olaparib] (partner 8 µM)
# In short: (§1)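 Dosing by pin tool came one day after lung cancer cell lines were seeded in 1536-well plates, using either one drug or a fixed anchor-drug dose plus five library-drug doses (not always all listed) in √10 steps. After 5 days, nuclei were counted on 4× images. Relative viability is treated-well nuclei count divided by vehicle-well nuclei count, and values are medians of duplicate plates.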
# Doramapimod + Pictilisib = compound: Cc1ccc(-n2nc(C(C)(C)C)cc2NC(=O)Nc2ccc(OCCN3CCOCC3)c3ccccc23)cc1 [Doramapimod] + CS(=O)(=O)N1CCN(Cc2cc3nc(-c4cccc5[nH]ncc45)nc(N4CCOCC4)c3s2)CC1 [Pictilisib] (partner 1 µM)
# In short: as §1
# Doramapimod + Dasatinib = compound: Cc1ccc(-n2nc(C(C)(C)C)cc2NC(=O)Nc2ccc(OCCN3CCOCC3)c3ccccc23)cc1 [Doramapimod] + Cc1nc(Nc2ncc(C(=O)Nc3c(C)cccc3Cl)s2)cc(N2CCN(CCO)CC2)n1 [Dasatinib] (partner 0.075 µM)
# In short: as §1
# Doramapimod + AZD7762 = compound: Cc1ccc(-n2nc(C(C)(C)C)cc2NC(=O)Nc2ccc(OCCN3CCOCC3)c3ccccc23)cc1 [Doramapimod] + NC(=O)Nc1cc(-c2cccc(F)c2)sc1C(=O)N[C@H]1CCCNC1 [AZD7762] (partner 0.2 µM)
# In short: as §1
Cell Line,relative viability (IPA-3 + Olaparib; first compound 0.2 µM),relative viability (IPA-3 + Olaparib; first compound 0.6325 µM),relative viability (IPA-3 + Olaparib; first compound 2 µM),relative viability (IPA-3 + Olaparib; first compound 6.325 µM),relative viability (IPA-3 + Olaparib; first compound 20 µM),relative viability (Doramapimod + Pictilisib; first compound 0.02 µM),relative viability (Doramapimod + Pictilisib; first compound 0.06325 µM),relative viability (Doramapimod + Pictilisib; first compound 0.2 µM),relative viability (Doramapimod + Pictilisib; first compound 0.6325 µM),relative viability (Doramapimod + Pictilisib; first compound 2 µM),relative viability (Doramapimod + Dasatinib; first compound 0.02 µM),relative viability (Doramapimod + Dasatinib; first compound 0.06325 µM),relative viability (Doramapimod + Dasatinib; first compound 0.2 µM),relative viability (Doramapimod + Dasatinib; first compound 0.6325 µM),relative viability (Doramapimod + Dasatinib; first compound 2 µM),relative viability (Doramapimod + AZD7762; first compound 0.02 µM),relative viability (Doramapimod + AZD7762; first compound 0.06325 µM),relative viability (Doramapimod + AZD7762; first compound 0.2 µM),relative viability (Doramapimod + AZD7762; first compound 0.6325 µM),relative viability (Doramapimod + AZD7762; first compound 2 µM)
NCI-H727,0.659,0.946,0.638,0.656,0.698,0.213,0.5,0.408,0.321,0.411,0.352,0.341,0.283,0.353,0.388,0.605,0.576,0.642,0.487,0.528
NCI-H838,0.904,0.723,0.776,0.667,0.735,0.415,0.485,0.439,0.552,0.467,0.279,0.327,0.315,0.326,0.298,0.869,0.962,0.958,0.902,0.92
NCI-H1355,0.764,0.779,0.836,0.675,0.709,0.438,0.356,0.386,0.366,0.332,0.713,0.692,0.724,0.753,0.623,0.663,0.82,0.853,0.767,0.743
NCI-H1395,0.507,0.456,0.465,0.474,0.457,0.567,0.599,0.601,0.624,0.545,0.413,0.433,0.401,0.546,0.363,0.392,0.39,0.355,0.443,0.349
NCI-H1437,0.629,0.597,0.639,0.608,0.565,0.453,0.411,0.37,0.596,0.415,0.466,0.459,0.437,0.596,0.323,1.13,1.16,1.23,1.05,1.08
NCI-H1651,0.198,0.187,0.189,0.179,0.178,0.605,0.478,0.551,0.695,0.519,0.481,0.458,0.449,0.54,0.32,0.441,0.478,0.435,0.441,0.356
NCI-H1666,0.854,0.655,0.764,0.749,0.836,0.502,0.397,0.37,0.369,0.312,0.889,0.881,0.876,1.14,0.87,0.9,0.943,1.01,0.975,0.851
NCI-H1734,0.701,0.586,0.577,0.587,0.513,0.418,0.356,0.352,0.466,0.325,0.443,0.405,0.426,0.509,0.39,0.418,0.608,0.498,0.75,0.434
NCI-H1755,0.879,0.851,0.804,0.849,0.895,0.364,0.382,0.455,0.447,0.393,0.458,0.438,0.369,0.4,0.344,0.428,0.5,0.379,0.477,0.412
NCI-H1792,0.506,0.48,,0.395,0.225,0.271,0.234,0.222,0.254,0.211,0.727,0.645,0.713,0.645,0.654,0.43,0.89,0.842,0.618,0.434
NCI-H1793,0.699,0.773,0.923,0.893,1.2,0.392,0.324,0.245,0.336,0.252,0.335,0.379,0.368,0.36,0.344,0.381,0.326,0.523,0.321,0.243
NCI-H1915,0.28,0.237,0.269,0.246,0.255,0.945,0.932,0.989,0.87,0.785,0.304,0.327,0.316,0.354,0.307,0.694,0.734,0.771,0.82,0.664
NCI-H1944,0.452,0.409,0.405,0.435,0.395,0.319,0.378,0.339,0.372,0.322,0.213,0.231,0.193,0.232,0.216,0.468,0.62,0.341,0.647,0.312
NCI-H1975,1.03,0.761,0.815,0.705,0.495,0.324,0.32,0.315,0.373,0.294,0.284,0.365,0.353,0.374,0.357,0.863,0.874,0.871,0.665,0.787
NCI-H1993,1.22,1.08,0.995,1.23,1.08,0.85,0.97,0.825,0.728,0.906,0.885,0.638,0.505,0.705,0.559,0.751,0.675,0.608,0.781,0.557
NCI-H2085,0.785,0.759,0.816,0.768,0.883,0.438,0.424,0.431,0.45,0.381,0.253,0.252,0.221,0.28,0.201,1.07,0.978,1.01,1.08,1.02
NCI-H2087,0.685,0.631,0.642,0.474,0.763,0.754,0.795,0.83,0.764,0.847,0.937,1.07,0.809,0.893,0.837,1.47,1.52,1.15,1.42,1.39
NCI-H2126,1.05,0.886,0.877,0.875,1.06,0.487,0.542,0.488,0.438,0.401,0.59,0.661,0.577,0.544,0.497,0.865,1.02,0.942,1.02,1.04
NCI-H2170,0.67,0.561,0.646,0.614,0.624,0.332,0.325,0.295,0.438,0.269,0.614,0.616,0.7,0.896,0.594,0.828,0.948,0.889,1.07,0.851
NCI-H2347,0.568,0.486,0.565,0.592,0.612,0.637,0.547,0.497,0.829,0.347,0.351,,0.291,0.319,0.282,0.733,0.831,0.711,0.757,0.781
NCI-H2405,0.994,0.832,0.939,0.865,0.9,0.435,0.424,0.401,0.68,0.356,0.222,0.219,0.2,0.403,0.188,0.821,0.746,0.758,0.895,0.686
NCI-H3122,0.655,0.608,0.57,0.644,0.588,0.578,0.548,0.586,0.694,0.65,0.762,0.779,0.78,0.936,0.727,1.11,1.09,1.05,1,1.12
PC-3 [JPC-3],1.11,1.08,1.28,1.05,1.13,0.809,0.772,0.771,0.897,0.421,1,1.04,0.939,1.05,1.02,1.12,0.912,0.882,0.899,0.786
PC-14,0.286,0.29,0.335,0.222,0.134,0.636,0.644,0.645,0.655,0.616,0.282,0.274,0.28,0.341,0.243,0.521,0.539,0.353,0.378,0.325
RERF-LC-KJ,0.92,0.942,0.982,0.771,0.424,0.569,0.536,0.56,0.581,0.55,0.88,0.709,0.729,0.769,0.768,0.897,1.15,0.961,0.703,0.889
